Source: patent publication US20110178396A1, “Nicotinamide Derivatives” (CRC FOR BIOMEDICAL IMAGING DEVELOPMENT LTD., priority 2008, published 2011)

Key:
B16F0 melanoma tumour = experiment: Biodistribution in B16 melanoma bearing mice; format: in vivo, C57BL/6J mice; settings: C57BL/6J mice; for Organ distribution Intestine / Organ distribution Liver / Organ distribution Spleen / Organ distribution Stomach / Organ distribution Thyroid / Organ distribution Tumour: B16F0 tumour, mean ± S.D.; for Organ distribution Intestine / Organ distribution Liver / Organ distribution Spleen / Organ distribution Stomach / Organ distribution Thyroid / Organ distribution Tumour / Uptake Lung / uptake BLOOD / uptake BRAIN / uptake HEART / uptake KIDNEY / uptake LIVER / uptake TUMOUR: n = 5; for tumour standardized uptake value (SUVt) / Uptake Lung / uptake BLOOD / uptake BRAIN / uptake HEART / uptake KIDNEY / uptake LIVER / uptake TUMOUR: B16 tumour; for Uptake Lung / uptake BLOOD / uptake BRAIN / uptake HEART / uptake KIDNEY / uptake LIVER / uptake TUMOUR: mean ± SD
Method in brief: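 B16F0 tumours in C57BL/6J mice (day 11) and A375 xenografts in BALB/c nude mice (day 25), subcutaneous left flank. Radiotracer given i.v. by tail vein (18F 0.5–1.5 MBq; 123I 0.37–0.74 MBq); n=5 per time point, 15 min–6 h (18F) or 1–72 h (123I). Organs γ-counted as % ID/g.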

melanoma tumour = melanoma tumour bearing mice, cited from earlier work

Q: With O=C(c1cncc(I)c1)N1CCN(Cc2ccccc2)CC1 [[^123I]20, (4-Benzylpiperazin-1-yl)(5-iodopyridin-3-yl)methanone] as the compound, how does the “Organ distribution Intestine” value (B16F0 melanoma tumour; 1 h) read?
A: 58 ± 2 % ID/organ

Q: What about the “Organ distribution Liver” value (B16F0 melanoma tumour; 1 h) of the same compound?
A: 3.6 ± 0.9 % ID/organ

Q: What about the “Organ distribution Spleen” value (B16F0 melanoma tumour; 1 h) of the same compound?
A: 0.05 ± 0.01 % ID/organ

Q: And the “Organ distribution Stomach” value (B16F0 melanoma tumour; 1 h)?
A: 1.7 ± 0.6 % ID/organ

Q: And the “Organ distribution Thyroid” value (B16F0 melanoma tumour; 1 h)?
A: 0.30 ± 0.08 % ID/organ

Q: What about the “Organ distribution Tumour” value (B16F0 melanoma tumour; 1 h) of the same compound?
A: 2.6 ± 1.0 % ID/organ

Q: What about the “Organ distribution Intestine” value (B16F0 melanoma tumour; 6 h) of the same compound?
A: 30 ± 3 % ID/organ

Q: And the “Organ distribution Liver” value (B16F0 melanoma tumour; 6 h)?
A: 1.9 ± 0.4 % ID/organ

Q: What about the “Organ distribution Spleen” value (B16F0 melanoma tumour; 6 h) of the same compound?
A: 0.04 ± 0.02 % ID/organ

Q: What about the “Organ distribution Stomach” value (B16F0 melanoma tumour; 6 h) of the same compound?
A: 4 ± 3 % ID/organ

Q: And the “Organ distribution Thyroid” value (B16F0 melanoma tumour; 6 h)?
A: 1.1 ± 0.4 % ID/organ

Q: What about the “Organ distribution Tumour” value (B16F0 melanoma tumour; 6 h) of the same compound?
A: 1.7 ± 0.5 % ID/organ

Q: What about the “Organ distribution Intestine” value (B16F0 melanoma tumour; 24 h) of the same compound?
A: 0.4 ± 0.1 % ID/organ

Q: What about the “Organ distribution Liver” value (B16F0 melanoma tumour; 24 h) of the same compound?
A: 0.13 ± 0.04 % ID/organ

Q: What about the “Organ distribution Spleen” value (B16F0 melanoma tumour; 24 h) of the same compound?
A: 0.00 ± 0.00 % ID/organ

Q: What about the “Organ distribution Stomach” value (B16F0 melanoma tumour; 24 h) of the same compound?
A: 0.07 ± 0.02 % ID/organ

Q: What about the “Organ distribution Thyroid” value (B16F0 melanoma tumour; 24 h) of the same compound?
A: 1.4 ± 0.6 % ID/organ

Q: And the “Organ distribution Tumour” value (B16F0 melanoma tumour; 24 h)?
A: 0.36 ± 0.07 % ID/organ

Q: What about the “tumour standardized uptake value (SUVt)” value (B16F0 melanoma tumour; 1 h) of the same compound?
A: 1.5 ± 0.4

Q: What about the “Uptake Lung” value (B16F0 melanoma tumour; 1 h) of the same compound?
A: 0.90 ± 0.06 % ID/g

Q: What about the “uptake BLOOD” value (B16F0 melanoma tumour; 1 h) of the same compound?
A: 0.89 ± 0.07 % ID/g

Q: And the “uptake BRAIN” value (B16F0 melanoma tumour; 1 h)?
A: 0.20 ± 0.02 % ID/g

Q: And the “uptake HEART” value (B16F0 melanoma tumour; 1 h)?
A: 0.49 ± 0.03 % ID/g

Q: And the “uptake KIDNEY” value (B16F0 melanoma tumour; 1 h)?
A: 4.2 ± 0.6 % ID/g

Q: And the “uptake LIVER” value (B16F0 melanoma tumour; 1 h)?
A: 3.6 ± 0.9 % ID/g

Q: What about the “uptake TUMOUR” value (B16F0 melanoma tumour; 1 h) of the same compound?
A: 6.0 ± 1.6 % ID/g

Q: And the “tumour standardized uptake value (SUVt)” value (B16F0 melanoma tumour; 6 h)?
A: 1.7 ± 0.5

Q: What about the “Uptake Lung” value (B16F0 melanoma tumour; 6 h) of the same compound?
A: 0.46 ± 0.13 % ID/g

Q: And the “uptake BLOOD” value (B16F0 melanoma tumour; 6 h)?
A: 0.60 ± 0.17 % ID/g

Q: What about the “uptake BRAIN” value (B16F0 melanoma tumour; 6 h) of the same compound?
A: 0.05 ± 0.01 % ID/g

Q: And the “uptake HEART” value (B16F0 melanoma tumour; 6 h)?
A: 0.24 ± 0.08 % ID/g

Q: What about the “uptake KIDNEY” value (B16F0 melanoma tumour; 6 h) of the same compound?
A: 2.4 ± 0.4 % ID/g

Q: What about the “uptake LIVER” value (B16F0 melanoma tumour; 6 h) of the same compound?
A: 2.2 ± 0.6 % ID/g

Q: And the “uptake TUMOUR” value (B16F0 melanoma tumour; 6 h)?
A: 3.9 ± 0.9 % ID/g

Q: What about the “tumour standardized uptake value (SUVt)” value (B16F0 melanoma tumour; 24 h) of the same compound?
A: 9 ± 2

Q: What about the “Uptake Lung” value (B16F0 melanoma tumour; 24 h) of the same compound?
A: 0.03 ± 0.01 % ID/g

Q: What about the “uptake BLOOD” value (B16F0 melanoma tumour; 24 h) of the same compound?
A: 0.04 ± 0.01 % ID/g

Q: What about the “uptake BRAIN” value (B16F0 melanoma tumour; 24 h) of the same compound?
A: 0.001 % ID/g

Q: What about the “uptake HEART” value (B16F0 melanoma tumour; 24 h) of the same compound?
A: 0.02 ± 0.01 % ID/g

Q: What about the “uptake KIDNEY” value (B16F0 melanoma tumour; 24 h) of the same compound?
A: 0.08 ± 0.01 % ID/g

Q: What about the “uptake LIVER” value (B16F0 melanoma tumour; 24 h) of the same compound?
A: 0.12 ± 0.02 % ID/g

Q: And the “uptake TUMOUR” value (B16F0 melanoma tumour; 24 h)?
A: 1.0 ± 0.2 % ID/g

Q: What does the source list for CCN(CC)CCNC(=O)c1ccc([18F])cc1 [structure A]?
A: reported tumour uptake (melanoma tumour; at 2 h): 6.5 % ID/g; Typical Tumour: Blood ratio (melanoma tumour): 12
